Reference: paper PMC6043506, “Investigating molecular interactions between oxidized neuroglobin and cytochrome c” (Scientific Reports, 2018)
Where two headings read alike, the source gives them in different places.

B1: hNgb: ferric human Ngb; six-coordinated heme protein; PDB ID 4MPM (Chain B) (protein, UniProt Q9NPG2 1-151, looked up)
Neuroglobin: MERPEPELIRQSWRAVSRSPLEHGTVLFARLFALEPDLLPLFQYNCRQFSSPEDCLSSPEFLDHIRKVMLVIDAAVTNVEDLSSLEEYLASLGRKHRAVGVKLSSFSTVGESLLYMLEKCLGPAFTPATRAAWSQLYGAVVQAMSRGWDGE
modifications: ferric heme

Legend:
[1] = target: T1, Cyt c (Equus caballus, UniProt P00004); assay: SPR qualitative comparison of peptide bindings to immobilized Cyt c; format: binding, Equine heart; conditions: for SPR signal compared to PhNgb1-Wt (qualitative) / binding to Cyt c (qualitative) / binding to Cyt c compared to PhNgb2-Wt (qualitative): SPR sensorgrams, HBS-P+1% DMSO, pH 7.4, 60 s injection; for SPR signal compared to PhNgb1-Wt (qualitative) / binding to Cyt c (qualitative): Fig. 4A; for binding to Cyt c (qualitative): repeated at least two times; for binding to Cyt c compared to PhNgb2-Wt (qualitative): Fig. 4C
T1 construct: Equine heart Cyt c and dimethyl sulfoxide (DMSO) were purchased from Sigma Aldrich; purchased Sigma Aldrich; host or cells: equine heart (tissue-derived, as the product name says)
T1 sequence (P00004 whole entry): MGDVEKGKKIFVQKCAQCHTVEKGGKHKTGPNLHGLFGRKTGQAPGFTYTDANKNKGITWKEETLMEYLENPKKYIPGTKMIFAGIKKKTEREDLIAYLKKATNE
Experimental: The peptides were dissolved in 100% DMSO and further diluted in the running buffer (10 mM HEPES pH 7.4, 150 mM NaCl, and 0.05% v/v surfactant P20 supplemented at 1% v/v DMSO) and injected over the Cyt c-immobilized surface at various concentrations.
Equine heart Cyt c and dimethyl sulfoxide (DMSO) were purchased from Sigma Aldrich. The amine coupling kit, Series S sensor chip CM5, and HBS-P+ buffer (0.1 M HEPES, 1.5 M NaCl, and 0.5% v/v surfactant P20) were purchased from GE Healthcare.
The SPR experiments were performed using a Biacore T200 SPR instrument (GE Healthcare). Cyt c, which was used as a ligand, was immobilized onto the CM5 chip up to a level of ~9000 Response Units (RU) in the presence of 10 mM sodium acetate buffer at pH 5.5. A standard amine coupling chemistry according to the manufacturer’s recommended protocol (GE Healthcare) was used to immobilize Cyt c. HBS-P+ buffer was diluted 10X to 10 mM HEPES pH 7.4, 150 mM NaCl, and 0.05% v/v surfactant P20 (HBS-P) in ddH2O and filtered through a […] polystyrene membrane filter. HBS-P was used as the immobilization running buffer. The peptides were used as analytes to inject over the Cyt c-immobilized CM5 chip surface in various concentrations in an HBS-P+1% DMSO buffer. HBS-P+1% DMSO was used as the running buffer in the analyte-ligand binding experiments. […] All analytes were injected in duplicate in each cycle. The kinetics experiments were repeated for three times. All qualitative experiments, including inhibition experiments were repeated at least two times with the wild type peptides injected as positive controls in each experiment.
VMD[34] was used to analyze and visualize the structure and simulation trajectories. The total interaction energy was calculated using NAMD energy plugin available in VMD. Each frame in the NVT simulation trajectory was saved at every 200 ps. An atomic distance of 3.5 Å and angle cutoff of 30 degrees were used to trace hydrogen bonding and the same atomic distance of 3.5 Å was used as the cut off to analyze interfacial contacts and salt bridges. For contacts analysis, only residues that show contacts for more than 1000 frames were considered. Carma[38] was used to determine the radius of gyration (Rg) and to perform PCA as well as PCA-based cluster analyses. GraphPad prism (GraphPad Software, Inc.) was used to generate the graphs. The bonding distances between D73 (in hNgb, atom OD2) and K72 (in Cyt c, atom NZ), T77 (in hNgb, atom OG1) and K72 (in Cyt c, atom NZ), E87 (in hNgb, atom OE2) and K27 (in Cyt c, atom NZ) as well as between E86 (in hNgb, atom OE2) and K27 (in Cyt c, atom NZ) were plotted. All graphs obtained from analyses of MD simulation trajectories were averaged with 25 neighboring points and 4th order smoothing polynomial using the GraphPad prism software. Biacore T200 evaluation software version 1.0 (GE Healthcare) was used to analyze the SPR sensorgrams.

[2] = system: PhNgb1-Wt binding to Cyt c; assay: SPR inhibition experiment: PhNgb1-Wt binding to immobilized Cyt c in presence of PCyt c; set-up: species or system Equine heart; conditions: mixture of PhNgb1-Wt and PCyt c in 1:2 molar ratio, Fig. 4B, 60 s injection
Experimental: We conducted SPR experiments with mutated peptides. […] (hNgb) and […] (hNgb) together take part in binding to […] (Cyt c), making a strong bonding as predicted by simulations. We could not perform quantitative investigations (via determination of KD values) for the mutated peptides due to solubility issues at higher concentrations. […] This experiment further confirms the involvement of the predicted amino acid […]) in the hNgb-Cyt c complex formation. […] The SPR experiments were performed using a Biacore T200 SPR instrument (GE Healthcare). Cyt c, which was used as a ligand, was immobilized onto the CM5 chip up to a level of ~9000 Response Units (RU) in the presence of 10 mM sodium acetate buffer at pH 5.5. A standard amine coupling chemistry according to the manufacturer's recommended protocol (GE Healthcare) was used to immobilize Cyt c. HBS-P+ buffer was diluted 10X to 10 mM HEPES pH 7.4, 150 mM NaCl, and 0.05% v/v surfactant P20 (HBS-P) in ddH2O and filtered through a […] polystyrene membrane filter. HBS-P was used as the immobilization running buffer. The peptides were used as analytes to inject over the Cyt c-immobilized CM5 chip surface in various concentrations in an HBS-P+1% DMSO buffer. HBS-P+1% DMSO was used as the running buffer in the analyte-ligand binding experiments. […] All analytes were injected in duplicate in each cycle. […]

[3] = system: caspase 9 activation; conditions: binding of Ngb to Cyt c alone, no redox reaction required, cited from earlier work
From the text: Cytochrome c (Cyt c), which is another heme protein[13], is a known Ngb binding partner[12],[14]. This mitochondrial heme protein triggers cell apoptosis during apoptotic cell signaling. During ischemic insults, the cellular apoptotic pathway is activated, leading to the release of ferric Cyt c, which is an essential component of the apoptosome, into the cytoplasm[16]–[18]. […] Importantly, this K72 residue takes part in interactions of Cyt c with apoptotic protease-activation factor-1[31]. […] There ...

[4] = system: ferric Cyt c; conditions: SPR, nanopore-based nanopipettes, ITC; ferric hNgb and ferric Cyt c; cited from earlier work
From the text: Electrochemical impedance spectroscopy measurements have also confirmed the formation of an hNgb-Cyt c complex. Computational docking is useful to investigate the complex formation between proteins. Several computational docking studies have bee ...

Molecule | SPR signal compared to PhNgb1-Wt (qualitative) [1] | binding to Cyt c (qualitative) [1] | binding to Cyt c compared to PhNgb2-Wt (qualitative) [1] | other results
LENPKKYIP [PCyt c, peptide with amino acids L68 to P76 in Cyt c] | – | – | – | binding of PCyt c to immobilized Cyt c (qualitative) ([1]; SPR): does not bind to immobilized Cyt c; inhibition of PhNgb1-Wt binding (qualitative) [2]: diminished signal as compared to PhNgb1-Wt signal
MLVIAAAVTNVED [PhNgb1-M2] | weaker SPR signals as compared to SPR signals for PhNgb1-Wt | bind to Cyt c | – | –
MLVIDAAVANVED [PhNgb1-M1] | weaker SPR signals as compared to SPR signals for PhNgb1-Wt | bind to Cyt c | – | –
SSLAAYLAS [PhNgb2-M2] | – | – | comparable binding | –
SSLEAYLAS [PhNgb2-M1] | – | – | stronger binding | –
B1 | – | – | – | effect on caspase 9 activation [3]: enough to suppress caspase-9 activation; effect on caspase 9 activation ([3]; listed as Ngb): sufficient to block the Cyt c-induced caspase 9 activation; affinity to ferric Cyt c [4]: micromolar affinity
